Oc1cc(Cl)ccc1Oc1ccc(Cl)cc1Cl
solubility (mole fraction)
Settings	in chloroform	in ethanol	in isopropyl myristate	in n-heptane	in n-octanol
293.15 K	0.33	0.332	0.0422	0.0156	0.0089
298.15 K	0.412	0.449	0.0475	0.0286	0.025
303.15 K	0.501	0.57	0.0527	0.0421	0.0785
308.15 K	0.561	0.654	0.0563	0.0605	0.157
313.15 K	0.633	0.751	0.0594	0.0806	0.285

Reference: BigSolDB 2.1
